Data reported in patent publication US20210324379A1 (priority 2018, published 2021).

What was measured:
EYFP = assay type: cell-based; details: drugs screened at 10 μM; MAGeCK analysis
Experimental: (§1) Implementation of drug screening platform for proteases of viral or bacterial origin. Y axis represents drugs screened at 10 uM. X axis represents protein modeled and which cell line. WT=Natural expression of drug transporters. KO=No expression of PDR1, PDR3 and SNQ2.
(§2) All drugs were screened at a concentration of 10 μM. Barcoded cells expressing various protein drug targets were grown up individually on agar plates containing SC-ura-leu glucose. These strains were then inoculated into SC-ura-leu with glucose liquid culture media and after overnight growth were mixed together in equal amounts to generate the DNA barcoded library. The DNA barcoded library was then inoculated into SC-ura-leu with galactose liquid culture media with and without small molecule compounds.
(§3) Amplicons for NGS were generated through a two-step PCR protocol. Barcode sequences were amplified with Taq polymerase from genomic DNA preparations with primers anchored in constant regions of the 415-Kan-BC plasmid.

HIV protease [1] = molecular target: T1, HIV protease (Human immunodeficiency virus type 1 group M subtype B, UniProt P03366); assay type: cell-based; details: for rescue in 3Δ cells compared to wild type cells: Δpdr1 Δpdr3 Δsnq2 (3Δ) vs WT yeast, SC-ura galactose plates with indicated amount of inhibitor (FIG. 9)
Experimental: FIG. 5: Spot assays of Δpdr1 Δpdr3 Δsnq2 yeast expressing pAG426-GAL empty vector or pAG426-GAL-HIV protease. Strains were grown to saturation in SC-ura glucose media and serial dilutions (10-fold) of yeast were plated on SC-ura glucose or SC-ura galactose plates with or without 5 μM lopinavir added.
Cells expressing pAG426-GAL-HIV vectors were transformed into either wild type (WT) or Δpdr1 Δpdr3 Δsnq2 (3Δ) yeast which show a reduced ability to export exogenous small molecules from the cell. Cells were then grown overnight in SC-ura glucose media and spotted at 10-fold serial dilution onto SC-ura galactose plates containing the indicated amount of HIV protease inhibitor (Lopinavir or Saquinavir).

mcherry = test: Manual spot assay of cultures plated in 5-fold dilutions (FIG. 12B); assay type: cell-based; details: consecutive 5-fold dilutions
Experimental: (§4) Y axis represents drugs screened at 10 uM. X axis represents protein modeled and which cell line. WT=Natural expression of drug transporters. KO=No expression of multidrug transporters PDR1 and PDR3.

ALS models = test: Pooled DNA barcoded drug screen of ALS models against 22 small molecules (FIG. 14/18); assay type: cell-based, yeast; details: ten ALS models as mixed pool
Experimental: Y axis represents drugs screened at 10 uM. X axis represents protein modeled and which cell line. WT=Natural expression of drug transporters.

OPTN = molecular target: T2, OPTN (Homo sapiens, UniProt Q96CV9); test: Manual spot assay of cultures plated in 5-fold dilutions (FIG. 12B); assay type: cell-based; details: consecutive 5-fold dilutions
T2 construct: expressed in transfected cells; host or cells: Saccharomyces cerevisiae, galactose-inducible expression
T2 sequence (Q96CV9 whole entry): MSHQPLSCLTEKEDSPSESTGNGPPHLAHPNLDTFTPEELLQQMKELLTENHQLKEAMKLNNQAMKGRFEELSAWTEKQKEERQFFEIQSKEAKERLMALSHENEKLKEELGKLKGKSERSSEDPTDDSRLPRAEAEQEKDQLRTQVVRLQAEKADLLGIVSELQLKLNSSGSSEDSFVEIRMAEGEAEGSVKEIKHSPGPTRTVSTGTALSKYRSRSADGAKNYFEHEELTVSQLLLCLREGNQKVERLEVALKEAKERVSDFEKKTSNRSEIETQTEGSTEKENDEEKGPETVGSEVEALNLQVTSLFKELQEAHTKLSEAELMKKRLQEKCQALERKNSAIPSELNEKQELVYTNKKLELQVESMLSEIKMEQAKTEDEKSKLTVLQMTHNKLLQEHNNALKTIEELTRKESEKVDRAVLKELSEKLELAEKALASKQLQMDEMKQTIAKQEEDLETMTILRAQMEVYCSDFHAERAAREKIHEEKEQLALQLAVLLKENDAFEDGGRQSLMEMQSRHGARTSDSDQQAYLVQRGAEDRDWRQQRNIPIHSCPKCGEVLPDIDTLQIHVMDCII
Experimental: as §4
(§5) In addition, the presently disclosed screening methods were also applied towards an entirely orthogonal set of proteins. Aggregation-prone proteins are prevalent in numerous eukaryotic life forms and are implicated in a wide range of neurodegenerative diseases. […] In a drug screen of aggregation-prone proteins against 23 drugs, two significant interactions were identified (see FIG. 12A).

TAF15 = molecular target: T3, TAF15 (Homo sapiens, UniProt Q92804); test: as above; assay type: cell-based; details: consecutive 5-fold dilutions
T3 construct: expressed in transfected cells; host or cells: Saccharomyces cerevisiae, galactose-inducible expression
T3 sequence (Q92804 whole entry): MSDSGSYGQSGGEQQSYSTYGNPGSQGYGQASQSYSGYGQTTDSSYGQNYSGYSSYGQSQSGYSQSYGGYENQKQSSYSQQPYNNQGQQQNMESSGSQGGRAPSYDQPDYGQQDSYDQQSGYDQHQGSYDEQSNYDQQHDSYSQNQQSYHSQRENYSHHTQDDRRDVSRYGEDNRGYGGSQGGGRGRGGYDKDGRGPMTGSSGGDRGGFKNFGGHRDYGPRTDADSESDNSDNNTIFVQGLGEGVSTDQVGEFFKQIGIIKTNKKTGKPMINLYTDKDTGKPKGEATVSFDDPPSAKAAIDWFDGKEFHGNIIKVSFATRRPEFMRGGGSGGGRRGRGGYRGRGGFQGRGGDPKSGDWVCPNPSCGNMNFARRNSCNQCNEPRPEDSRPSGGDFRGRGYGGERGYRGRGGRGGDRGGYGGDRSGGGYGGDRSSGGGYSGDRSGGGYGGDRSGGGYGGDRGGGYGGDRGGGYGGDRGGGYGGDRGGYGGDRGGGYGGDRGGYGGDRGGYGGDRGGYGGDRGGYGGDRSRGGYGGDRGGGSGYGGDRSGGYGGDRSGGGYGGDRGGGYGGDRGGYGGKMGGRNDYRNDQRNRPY
Experimental: as §4, §5

HIV protease [2] = molecular target: T1, HIV protease; assay type: cell-based; details: drugs screened at 10 μM; MAGeCK analysis; WT and KO cells
Experimental: as §1, §2, §3

HIV protease [3] = molecular target: T1, HIV protease; assay type: cell-based; details: control cells within ALS mixed pool screen
Description: Ten disease models were probed as a mixed pool across a set of 22 small molecules. […] In these experiments cells containing HIV protease, DNAseI and mCherry served as controls.
Ten ALS models were probed as a mixed pool across a set of 22 small molecules. […] In these experiments, cells containing HIV protease and DNaseI served as positive controls, and cells containing mCherry served as negative controls.

wimpy yeast = test: Off-target toxicity detection with barcoded wimpy yeast (FIG. 25B, 25D); assay type: cell-based; details: mixed pool
Description: FIG. 25A-FIG. 25D: Wimpy Yeast allow for detection of drugs causing off-target toxicity in barcoded yeast pools. […] FIG. 25C and FIG. 25D: For a subset of drugs with known specific rescue of various proteases and kinases, the present screen is able to capture these effects, and a corresponding decrease in growth of any of the tested wimpy yeast was not observed. For all figures each of the protein targets of interest expressed in the yeast cells or the genes knocked out of their genome is listed on the x-axis. […] FDR=false discovery rate, FDR for FIG. 25A and FIG. 25C are in relation to enrichment while FIG. 25B and FIG. 25D are in relation to depletion.
To detect drugs that have additional pleotropic effects, which may confound the interpretation by appearing to rescue specific models, but in fact was a result of off-target effects rather than on-target enzymatic inhibition, a series of “wimpy” yeast were developed that were engineered to be sensitive to a wide variety of off-target drug toxicities (i.e., perturbations to various biological pathways). These wimpy yeast strains are engineered by using genetic mutation to selectively render the cells hypersensitive to perturbations to various core cellular pathways. […]

[4] = tested on: protease and kinase expressing cells; test: Mixed pool barcoded drug screen of protease and kinase expressing yeast (Example 4, FIG. 23, 25); assay type: cell-based; details: FIG. 25A/25C
Description: FIG. 23A-FIG. 23C: Modulation of multidrug exporters enables the testing of multiple drug concentrations in parallel. FIG. 23A: Cells expressing wild type levels of multidrug exporters capture compound known to inhibit HIV protease activity. FIG. 23B: Similar to FIG. 23A, except cells are deficient in the expression of several multidrug exporters. A greater number of previously identified protease and kinase inhibitors are identified when using the drug exporter deficient background. FIG. 23C: The average degree of rescue, measured by the growth recovery of a specific yeast strain expressing a toxic protein, is higher in the knockout background as a result of higher intracellular drug concentrations. […] Furthermore, all of the hits shown are previously validated drug-target interactions. Each of the protein targets of interest expressed in the yeast cells is listed on the x-axis. […] FDR=false discovery rate, and is in relation to enrichment. […]
A single drug screen was performed on a mixed pool of yeast cells harboring various target proteins in order to identify compounds that interfere with each of the tested protein's function. […] In order to test multiple protein targets at a time, a unique DNA barcode was added to each yeast cell, such that when read using next generation sequencing, its abundance within a mixed pool can be quantified. […]

CCCC(CCC)C(=O)O [valproic acid]
non-specific drug interaction with control-expressing cells (EYFP): non-specific drug interactions

Cc1cccc(C)c1OCC(=O)N[C@@H](Cc1ccccc1)[C@@H](O)C[C@H](Cc1ccccc1)NC(=O)[C@H](C(C)C)N1CCCNC1=O [Lopinavir]
rescue in 3Δ cells compared to wild type cells (HIV protease [1]): significant increases in rescue | mitigation of toxicity of yeast expressing HIV protease (HIV protease [1]; Δpdr1 Δpdr3 Δsnq2 yeast, SC-ura galactose plates, 5 μM lopinavir (FIG. 5)): toxicity can be mitigated

Nc1nc2ccc(OC(F)(F)F)cc2s1 [Riluzole]
growth of mcherry expressing cells in the presence of drug (mcherry): decreased growth | hit among >200 tested ALS gene-drug interactions (ALS models): potential hits | growth of OPTN expressing cells in the presence of drug (OPTN): slight growth improvement | growth of TAF15 expressing cells in the presence of drug (TAF15): decreased growth

COC(=O)N[C@H](C(=O)N[C@@H](Cc1ccccc1)[C@@H](O)CN(Cc1ccc(-c2ccccn2)cc1)NC(=O)[C@@H](NC(=O)OC)C(C)(C)C)C(C)(C)C [atazanavir]
barcode enrichment / protein-drug interaction for cells expressing HIV protease (HIV protease [2]): protein-drug interactions

CC(C)CN(C[C@@H](O)[C@H](Cc1ccccc1)NC(=O)O[C@H]1CO[C@H]2OCC[C@H]21)S(=O)(=O)c1ccc(N)cc1 [Darunavir]
rescue of growth for cells expressing HIV protease (HIV protease [3]): expected rescue of growth

CC(C)(C)NC(=O)[C@@H]1C[C@@H]2CCCC[C@@H]2CN1C[C@@H](O)[C@H](Cc1ccccc1)NC(=O)[C@H](CC(N)=O)NC(=O)c1ccc2ccccc2n1 [Saquinavir]
rescue in 3Δ cells compared to wild type cells (HIV protease [1]): significant increases in rescue

CC(=O)[C@]1(O)Cc2c(O)c3c(c(O)c2[C@@H](O[C@H]2C[C@H](N)[C@H](O)[C@H](C)O2)C1)C(=O)c1ccccc1C3=O [idarubicin]
growth of the wimpy yeast models (barcode depletion) (wimpy yeast): decrease in the growth | rescue of protease and kinase expressing cells (barcode enrichment) [4]: significant rescue
